Data on eight compounds can be found in ChEMBL document CHEMBL1201862, “PubChem BioAssay data set” (2004).

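In this assay, cells in 96-well plates receive the compound at five concentrations for 48 hours. Endpoints are linearly interpolated between the surrounding concentrations. GI50 marks 50% less growth.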 Calls of active or inactive are those of the source. Rule as the data show it: active = GI50 up to about 1.1 µM and inactive = higher. Bounds are passed on as bounds.

Holding throughout (assay): NCI tumour cell line growth inhibition, 48 h
Assay [1] relates to 786-0.
For assay [2], the system named is A549.
For assay [3], the system named is HCC 2998.
Assay [4] relates to HCT-15.
Assay [5] concerns HL-60.
Assay [6] has as its system HOP-62.
Assay [7] concerns IGROV-1.
In assay [8] the test system is K562.
Assay [9] relates to LOX IMVI.
Assay [10] deals with M14.
The subject of assay [11] is MDA-MB-231.
For assay [12], the system named is MOLT-4.
Assay [13] relates to OVCAR-3.
Assay [14] concerns OVCAR-8.
Assay [15] concerns RXF 393.
Assay [16] relates to SF-268.
The subject of assay [17] is SNB-19.
The test system of assay [18] is TK-10.
For assay [19], the system named is UO-31.

For `CN(C)CCNc1ccc2c(=O)n(CCN(C)C)c(=O)n3c4ccc(O)cc4c(=O)c1c23`, the GI50 is < 0.01 µM (active) in [1]; < 0.01 µM (active) in [2]; < 0.01 µM (active) in assay [3]; 0.045 µM in assay [4]; < 0.01 µM (active) in assay [5]; < 0.01 µM (active) in assay [6]. Also, the GI50 in assay [7] was 0.0144 µM (active); in assay [8] it was < 0.01 µM (active); in assay [9], < 0.0105 µM (active); in [10], < 0.034 µM (active); in [11] it was < 0.0395 µM (active); in assay [12], < 0.01 µM (active). For the same compound, the GI50 is 0.105 µM (active) in [13]; < 0.01 µM (active) in [14]; < 0.0127 µM (active) in assay [15]; < 0.0134 µM (active) in assay [16]; < 0.0212 µM (active) in [17]; 0.197 µM (active) in assay [18]. Besides, the GI50 in [19] was < 0.0148 µM (active).
Take `COc1cc(OCc2ccc3nc(OC)c(OC)nc3c2)cc(OC)c1OC`: the GI50 is > 10 µM (inactive) in assay [1]; > 10 µM (inactive) in assay [2]; > 10 µM (inactive) in assay [3]; more than 10 µM in assay [4]; > 10 µM (inactive) in assay [5]; > 10 µM (inactive) in assay [6]. In addition, the GI50 in assay [7], in assay [8], in assay [9], in assay [10], in assay [11] and in assay [12] was > 10 µM (inactive) in each case. The GI50 in assay [13], in assay [14], in [15], in [16], in [17] and in assay [18] was > 10 µM (inactive) each time. Also, in assay [19], the GI50 was > 10 µM (inactive).
Turning to `CCOc1snc(C(Cl)(Cl)Cl)c1Cl`, the GI50 is 31.7 µM (inactive) in assay [1]; 17.5 µM (inactive) in assay [2]; 22.4 µM (inactive) in assay [3]; 24.2 µM in [4]; 13.2 µM (inactive) in assay [5]; 27.4 µM (inactive) in assay [6]. For the same compound, the GI50 in assay [7] was 31 µM (inactive); in [8], 9.33 µM (inactive); in assay [9] it was 16.9 µM (inactive); in assay [10], 29 µM (inactive); in assay [11], 22.4 µM (inactive); in [12] it was 13.3 µM (inactive). Moreover, the GI50 in assay [13] was 14.1 µM (inactive); in assay [14], 24.4 µM (inactive); in assay [15], 13.6 µM (inactive); in assay [16], 17.7 µM (inactive); in [17], 6.75 µM (inactive); in [18], 23.1 µM (inactive). Besides, in [19], the GI50 is 5.58 µM (inactive).
As for `COC(=O)C1=CN(C2CCCCC2)C2(c3ccccc3)c3ccccc3C(=O)OC(=O)C12` (configuration not stated), the GI50 in assay [1] was > 100 µM (inactive); in [2], 95.5 µM (inactive); in [3], 27 µM (inactive); in assay [4] it was more than 100 µM; in assay [5], 15.2 µM (inactive); in assay [6], 90.8 µM (inactive). Moreover, the GI50 in [7] was > 100 µM (inactive); in assay [8], 20.1 µM (inactive); in assay [9], 42.3 µM (inactive); in assay [10], > 100 µM (inactive); in assay [11], 34.7 µM (inactive); in [12], 10.6 µM (inactive). The GI50 is > 100 µM (inactive) in assay [13]; > 100 µM (inactive) in [14]; 23 µM (inactive) in assay [15]; > 100 µM (inactive) in assay [16]; > 100 µM (inactive) in [17]; > 100 µM (inactive) in assay [18]. The GI50 in [19] was > 100 µM (inactive).
Regarding `CCOC(=O)NC(Nc1cccc(F)c1)(C(F)(F)F)C(F)(F)F`, the GI50 in [1] is > 100 µM (inactive); in assay [2], > 100 µM (inactive); in assay [3] it was > 100 µM (inactive); in [4], more than 100 µM; in assay [5], > 100 µM (inactive); in assay [6] it was > 100 µM (inactive). For the same compound, the GI50 in assay [7] was > 100 µM (inactive); in assay [8], 48.4 µM (inactive); in [9] it was > 100 µM (inactive); in assay [10], > 100 µM (inactive); in assay [11], > 100 µM (inactive); in assay [12] it was > 100 µM (inactive). The GI50 in assay [13], in assay [14], in assay [15], in assay [16], in [17] and in assay [18] was > 100 µM (inactive) each time. In addition, the GI50 in [19] is 4.94 µM (inactive).
With `Cc1ccc2ccc(O)cc2c1`, the GI50 is 76.2 µM (inactive) in assay [1]; 72.4 µM (inactive) in [2]; 18.2 µM (inactive) in assay [3]; 35.6 µM in assay [4]; 18.5 µM (inactive) in assay [5]; > 100 µM (inactive) in assay [6]. For the same compound, the GI50 in [7] is 20.7 µM (inactive); in assay [8] it was 20.2 µM (inactive); in assay [9], 30.2 µM (inactive); in [10] it was 46.5 µM (inactive); in [11], 30 µM (inactive); in [12] it was 22.6 µM (inactive). The GI50 in [13] is 10.2 µM (inactive); in assay [14], 23.3 µM (inactive); in assay [15], 44.9 µM (inactive); in assay [16] it was 31.8 µM (inactive); in assay [17], > 100 µM (inactive); in assay [18], > 100 µM (inactive). Moreover, in assay [19], the GI50 was 23 µM (inactive).
For `COc1cccc2c1C(=O)c1c(O)c3c(c(O)c1C2=O)C[C@@](O)(C(C)=O)CC3OC1CC(OC2CC(N)C(O)C(C)O2)C(O)C(C)O1` (some centres not stated), the GI50 in assay [1] was 32.5 µM (inactive); in [2], 52.5 µM (inactive); in assay [3], 54.6 µM (inactive); in [4], more than 85.1 µM; in assay [5], 10.6 µM (inactive); in assay [6], 36.8 µM (inactive). Moreover, the GI50 is 31.4 µM (inactive) in assay [7]; 19.6 µM (inactive) in assay [8]; 18.4 µM (inactive) in assay [9]; 61.7 µM (inactive) in [10]; > 64.9 µM (inactive) in [11]; 2.58 µM (inactive) in [12]. Also, the GI50 in assay [13] is 31 µM (inactive); in assay [14], 57.9 µM (inactive); in assay [15], 83 µM (inactive); in assay [16], 31.3 µM (inactive); in [17] it was 21.1 µM (inactive); in assay [18] it was > 100 µM (inactive). The GI50 in assay [19] is 45.5 µM (inactive).
Take `O=Cc1cc2c(o1)C(=O)c1ccccc1C2=O`: the GI50 was 1.25 µM (inactive) in [1]; 1.32 µM (inactive) in assay [2]; 1.88 µM (inactive) in [3]; 0.281 µM in assay [4]; 0.286 µM (active) in assay [5]; 0.834 µM (active) in assay [6]. The GI50 in assay [7] was 1.33 µM (inactive); in assay [8] it was 1.46 µM (inactive); in [9], 0.267 µM (active); in [10], 0.192 µM (active); in [11], 3.07 µM (inactive); in assay [12], 2.06 µM (inactive). In addition, the GI50 is 0.358 µM (active) in assay [13]; 1.26 µM (inactive) in assay [14]; 1.35 µM (inactive) in [15]; 1.55 µM (inactive) in assay [16]; 0.656 µM (active) in [17]; 2.7 µM (inactive) in [18]. In addition, the GI50 in assay [19] is 1.42 µM (inactive).
